# According to PubChem BioAssay AID1259411 (Chemical Carcinogenesis Research Information System (CCRIS), 2018):
# Calls of active or inactive are those of the source. How the calls were made is not given here.
# Test system: rodent carcinogenicity bioassays, tumor incidence
# Test: CCRIS carcinogenicity studies
# In short: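 Archive of carcinogenicity, mutagenicity, tumor promotion and tumor inhibition results drawn from journals, NCI reports and other sources, expert-reviewed; covers 1985-2011 and is no longer updated.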
smiles,measurement,setting,value
[Cl][Cd][Cl],carcinogen call,"Species: HAMSTER, Strain/Sex: SYRIAN/FEMALE, Route: INHALATION, Dose: 0, 30 UG/M3 19 HR/D 5 D/WK FOR 65 WK FOR A TOTAL CADMIUM DOSE OF 0, 180 MG/M3 (STUDY DURATION: 76 WK), Dose: 0, 30 UG/M3 19 HR/D 5 D/WK FOR 65 WK FOR A TOTAL CADMIUM DOSE OF 0, 180 MG/M3 (STUDY DURATION: 76 WK)",inactive; negative
same,carcinogen call,"Species: HAMSTER, Strain/Sex: SYRIAN/MALE, Route: INHALATION, Dose: 0, 30 UG/M3 19 HR/D 5 D/WK FOR 65 WK FOR A TOTAL CADMIUM DOSE OF 0, 180 MG/M3 (STUDY DURATION: 113 WK), Dose: 0, 30 UG/M3 19 HR/D 5 D/WK FOR 65 WK FOR A TOTAL CADMIUM DOSE OF 0, 180 MG/M3 (STUDY DURATION: 113 WK)",inactive; negative
same,carcinogen call,"Species: MOUSE, Strain/Sex: BALB/MALE, Route: SUBCUTANEOUS, Dose: 0, 20 UMOL/KG 1/WK FOR 16 WK (STUDY DURATION: 104 WK), Tumor Site: Type of Lesion: HEMATOPOIETIC SYSTEM: TUMOR",active; positive
same,carcinogen call,"Species: MOUSE, Strain/Sex: BALB/MALE, Route: SUBCUTANEOUS, Dose: 0, 20 UMOL/KG ONCE (STUDY DURATION: 104 WK)",inactive; negative
same,carcinogen call,"Species: MOUSE, Strain/Sex: CD-1/MALE, Route: SUBCUTANEOUS, Dose: 0, 0.03 MMOL/KG BW (5.5 MG/KG BW), SINGLE DOSE, Tumor Site: Type of Lesion: TESTES: INTERSTITIAL CELL TUMOR",active; positive
same,carcinogen call,"Species: MOUSE, Strain/Sex: CD-1/MALE, Route: SUBCUTANEOUS, Dose: 5.5 MG/KG ONCE, Tumor Site: Type of Lesion: TESTES: INTERSTITIAL CELL TUMOR",active; positive
same,carcinogen call,"Species: MOUSE, Strain/Sex: DBA/MALE, Route: SUBCUTANEOUS, Dose: 0, 40 UMOL/KG 1/WK FOR 16 WK (STUDY DURATION: 104 WK), Tumor Site: Type of Lesion: HEMATOPOIETIC SYSTEM: LYMPHOMA",active; positive
same,carcinogen call,"Species: MOUSE, Strain/Sex: DBA/MALE, Route: SUBCUTANEOUS, Dose: 0, 40 UMOL/KG ONCE (STUDY DURATION: 104 WK)",inactive; negative
same,carcinogen call,"Species: MOUSE, Strain/Sex: NFS/MALE, Route: SUBCUTANEOUS, Dose: 0, 40 UMOL/KG 1/WK FOR 16 WK (STUDY DURATION: 104 WK), Tumor Site: Type of Lesion: INJECTION SITE: TUMOR, LIVER: HEPATOCELLULAR ADENOMA OR CARCINOMA",active; positive
same,carcinogen call,"Species: MOUSE, Strain/Sex: NFS/MALE, Route: SUBCUTANEOUS, Dose: 0, 40 UMOL/KG ONCE (STUDY DURATION: 104 WK), Tumor Site: Type of Lesion: LUNG: ADENOMA OR CARCINOMA",active; positive
same,carcinogen call,"Species: MOUSE, Strain/Sex: SWISS/MALE, Route: SUBCUTANEOUS, Dose: 0, 40 UMOL/KG 1/WK FOR 16 WK BEGINNING AT 8 WK OF AGE (STUDY DURATION: 104 WK)",inactive; negative
same,carcinogen call,"Species: MOUSE, Strain/Sex: SWISS/MALE, Route: SUBCUTANEOUS, Dose: 0, 40 UMOL/KG ONCE AT 8 WK OF AGE (STUDY DURATION: 104 WK), Tumor Site: Type of Lesion: ADRENAL GLAND: ADENOMA",active; positive
same,carcinogen call,"Species: RAT, Strain/Sex: CS/MALE, Route: INTRAPROSTATIC, Dose: 0, 0.04 ML OF 0.1 MOLAR SOLUTION (0.73 MG) ONCE (STUDY DURATION: 250 D), Tumor Site: Type of Lesion: PROSTATE: CARCINOMA",active; positive
same,carcinogen call,"Species: RAT, Strain/Sex: F344/MALE, Route: SUBCUTANEOUS, Dose: 0, 3 UMOL/KG BW ONCE, THEN 30 UMOL/KG BW 1X/WK FOR 17 WK BEGINNING 1 WK POST INITIAL DOSE (STUDY DURATION: 18 WK), Tumor Site: Type of Lesion: INJECTION SITE SARCOMA",active; positive
same,carcinogen call,"Species: RAT, Strain/Sex: F344/MALE, Route: SUBCUTANEOUS, Dose: 0, 10, 20, 30 UMOL/KG BW 1X/WK FOR 18 WK (STUDY DURATION: 18 WK), Dose: 0, 10, 20, 30 UMOL/KG BW 1X/WK FOR 18 WK (STUDY DURATION: 18 WK), Tumor Site: Type of Lesion: INJECTION SITE SARCOMA",active; positive
same,carcinogen call,"Species: RAT, Strain/Sex: F344/MALE, Route: SUBCUTANEOUS, Dose: 0, 30 UMOL/KG IN DORSAL THORACIC MIDLINE AREA ONCE (STUDY DURATION: 90 WK), Tumor Site: Type of Lesion: INJECTION SITE: SARCOMA, FIBROSARCOMA",active; positive
same,carcinogen call,"Species: RAT, Strain/Sex: WISTAR/FEMALE, Route: INHALATION, Dose: 0, 30 UG/M3 22 HR/D 7 D/WK FOR 18 MO (STUDY DURATION: 31 MO), Tumor Site: Type of Lesion: LUNG: ALVEOLAR/BRONCHIOLAR ADENOMA, ADENOCARCINOMA",active; positive
same,carcinogen call,"Species: RAT, Strain/Sex: WISTAR/FEMALE, Route: INHALATION, Dose: 0, 30 UG/M3 22 HR/D 7 D/WK FOR 18 MO (STUDY DURATION: 31 MO), Tumor Site: Type of Lesion: LUNG: TUMOR",active; positive
same,carcinogen call,"Species: RAT, Strain/Sex: WISTAR/FEMALE, Route: INHALATION, Dose: 0, 30 UG/M3 AEROSOL 22 HR/D 7 D/WK FOR 18 MO (STUDY DURATION: 31 MO), Tumor Site: Type of Lesion: LUNG: ALVEOLAR/BRONCHIOLAR ADENOMA, SQUAMOUS CELL CARCINOMA",active; positive
same,carcinogen call,"Species: RAT, Strain/Sex: WISTAR/FEMALE, Route: INHALATION, Dose: 0, 90 UG/M3 22 HR/D 7 D/WK FOR 6 MO (STUDY DURATION: 29 MO), Tumor Site: Type of Lesion: LUNG: ADENOCARCINOMA, SQUAMOUS CELL CARCINOMA",active; positive
same,carcinogen call,"Species: RAT, Strain/Sex: WISTAR/FEMALE, Route: INHALATION, Dose: 0, 90 UG/M3 22 HR/D 7 D/WK FOR 6 MO (STUDY DURATION: 29 MO), Tumor Site: Type of Lesion: LUNG: TUMOR",active; positive
same,carcinogen call,"Species: RAT, Strain/Sex: WISTAR/FEMALE, Route: INHALATION, Dose: 0, 90 UG/M3 AEROSOL 22 HR/D 7 D/WK FOR 6 MO (STUDY DURATION: 29 MO), Tumor Site: Type of Lesion: LUNG: ADENOCARCINOMA, SQUAMOUS CELL CARCINOMA",active; positive
same,carcinogen call,"Species: RAT, Strain/Sex: WISTAR/MALE, Route: INHALATION, Dose: 0, 12.5, 25, 50 UG/M3 AEROSOL 23 HR/D 7 D/WK FOR 18 MO (STUDY DURATION: 31 MO), Dose: 0, 12.5, 25, 50 UG/M3 AEROSOL 23 HR/D 7 D/WK FOR 18 MO (STUDY DURATION: 31 MO), Tumor Site: Type of Lesion: LUNG: ADENOMA, ADENOCARCINOMA, EPIDERMOID CARCINOMA",active; positive
same,carcinogen call,"Species: RAT, Strain/Sex: WISTAR/MALE, Route: INHALATION, Dose: 0, 30 MG/M3 AEROSOL 22 HR/D 7 D/WK FOR 18 MO (STUDY DURATION: 30 MO), Tumor Site: Type of Lesion: LUNG: ALVEOLAR/BRONCHIOLAR ADENOMA, ADENOCARCINOMA",active; positive
same,carcinogen call,"Species: RAT, Strain/Sex: WISTAR/MALE, Route: INHALATION, Dose: 0, 30 UG/M3 22 HR/D 7 D/WK FOR 18 MO (STUDY DURATION: 30 MO), Tumor Site: Type of Lesion: LUNG: ALVEOLAR/BRONCHIOLAR ADENOMA, ADENOCARCINOMA",active; positive
same,carcinogen call,"Species: RAT, Strain/Sex: WISTAR/MALE, Route: INHALATION, Dose: 0, 30 UG/M3 22 HR/D 7 D/WK FOR 18 MO (STUDY DURATION: 30 MO), Tumor Site: Type of Lesion: LUNG: TUMOR",active; positive
same,carcinogen call,"Species: RAT, Strain/Sex: WISTAR/MALE, Route: INHALATION, Dose: 0, 90 UG/M3 22 HR/D 7 D/WK FOR 6 MO (STUDY DURATION: 30 MO), Tumor Site: Type of Lesion: LUNG: ALVEOLAR/BRONCHIOLAR ADENOMA, ADENOCARCINOMA, SQUAMOUS CELL CARCINOMA",active; positive
same,carcinogen call,"Species: RAT, Strain/Sex: WISTAR/MALE, Route: INHALATION, Dose: 0, 90 UG/M3 22 HR/D 7 D/WK FOR 6 MO (STUDY DURATION: 30 MO), Tumor Site: Type of Lesion: LUNG: TUMOR",active; positive
same,carcinogen call,"Species: RAT, Strain/Sex: WISTAR/MALE, Route: INHALATION, Dose: 0, 90 UG/M3 AEROSOL 22 HR/D 7 D/WK FOR 6 MO (STUDY DURATION: 30 MO), Tumor Site: Type of Lesion: LUNG: ALVEOLAR/BRONCHIOLAR, ADENOCARCINOMA, SQUAMOUS CELL CARCINOMA",active; positive
same,carcinogen call,"Species: RAT, Strain/Sex: WISTAR/MALE, Route: SUBCUTANEOUS, Dose: 0, 0.03 MMOL/KG BW (5.5 MG/KG BW), SINGLE DOSE, Tumor Site: Type of Lesion: TESTES: INTERSTITIAL CELL TUMOR",active; positive
same,carcinogen call,"Species: RAT, Strain/Sex: WISTAR/MALE, Route: SUBCUTANEOUS, Dose: 0, 3 UMOL/KG BW ONCE, THEN 30 UMOL/KG BW 1X/WK FOR 17 WK BEGINNING 1 WK POST INITIAL DOSE (STUDY DURATION: 18 WK), Tumor Site: Type of Lesion: INJECTION SITE SARCOMA",active; positive
same,carcinogen call,"Species: RAT, Strain/Sex: WISTAR/MALE, Route: SUBCUTANEOUS, Dose: 0, 10, 20, 30 UMOL/KG BW 1X/WK FOR 18 WK (STUDY DURATION: 18 WK), Dose: 0, 10, 20, 30 UMOL/KG BW 1X/WK FOR 18 WK (STUDY DURATION: 18 WK), Tumor Site: Type of Lesion: INJECTION SITE SARCOMA",active; positive
same,carcinogen call,"Species: RAT, Strain/Sex: WISTAR/MALE, Route: SUBCUTANEOUS, Dose: 5.5 MG/KG ONCE, Tumor Site: Type of Lesion: INJECTION SITE: SARCOMA, TESTES: INTERSTITIAL CELL TUMOR",active; positive
same,carcinogen call,"Species: RAT, Strain/Sex: WISTAR, Route: SUBCUTANEOUS, Dose: 0, 0.03 MMOL/KG BW (5.5 MG/KG BW), SINGLE DOSE, OBSERVED 2 YR, Tumor Site: Type of Lesion: INJECTION SITE: SPINDLE CELL SARCOMA, TESTES: INTERSTITIAL CELL TUMOR",active; positive
same,carcinogen call,"Species: RAT, Strain/Sex: WISTAR, Route: SUBCUTANEOUS, Dose: 0, 0.03 MMOL/KG BW (5.5 MG/KG BW), SINGLE DOSE, Tumor Site: Type of Lesion: INJECTION SITE: SARCOMA, TESTES: INTERSTITIAL CELL TUMOR",active; positive
same,carcinogen call,"Species: RAT, Strain/Sex: WISTAR, Route: SUBCUTANEOUS, Dose: 0.02-0.03 MMOL/KG BW (3.7-5.5 MG/KG BW), SINGLE DOSE, Tumor Site: Type of Lesion: INJECTION SITE: FIBROSARCOMA, TESTES: INTERSTITIAL CELL TUMOR",active; positive
